Results taken from patent US6429208B1, “Methods and compositions for restoring impaired cellular immune function” (Regents of the University of California, priority 1992, dated 2002).

Key:
PKA = PKA (Homo sapiens, UniProt P17612); details: cited from earlier work
[1] = tested on: PBMC from an HIV seropositive subject; assay: Proliferative response to PHA of PBMC from HIV seropositive subjects; format: cell-based, human
Experimental: (§1) Proliferative assays were performed as previously described (see, for example, Hofmann, B., et al., Cell Immunol (1989) 121:336-48. Briefly, one microcurie ^3H-thymidine was added to cultures 72 hours after stimulation, and after further 24 hours, all cultures were harvested on glass fiber filters with an automatic harvesting machine (Skatron, Lierbyen, Norway), and the incorporated radioactivity was measured in a liquid scintillation counter (Beckman LS 1800) after an addition of 1.5 ml scintillation fluid.

membrane PKC activity = assay: Membrane PKC activity in PBMC; format: cell-based, human
Experimental: The reagents were obtained as a kit from Gibco (Grand island, N.Y.) and the manufacturer's protocol was followed. After activation, cell membrane fractions were then obtained by ultracentrifugation (100,000 g for one hour at 4° C.) of sonicated cell lysates without detergent. Membrane fractions were then sonicated in the presence of 0.05% Triton X and the specific PKC activities were determined. Specific PKC activity was determined as the difference between phosphorylation of a PKC specific substrate with and without a specific PKC inhibitor present. The specific PKC substrate was a synthetic peptide from myelin basic protein with an acetylated N-terminal glutamine. The specific PKC inhibitor was a pseudo-substrate peptide which specifically binds to the pseudo-substrate region of the regulatory domain of PKC. The reaction mixture was spotted on cellulose paper, non-bound ^32P-ATP was removed by washing, and the paper discs were counted in a β counter after addition of scintillation fluid. The amounts of lysate over which the assay was linear were determined in initial experiments. All experiments were repeated 2-5 times.

[2] = tested on: PBMC from HIV seropositive subjects; assay: Intracellular cAMP in PBMC from HIV seropositive subjects; format: cell-based, human; details: 10 ng/ml for 10 min; decreased from 5.3
Experimental: The compound 2′,5′ dideoxyadenosine (ddAdo) inhibits adenylate cyclase, the enzyme responsible for the generation of cAMP, by competition for the “P”-binding site (Johnson, J Biochem (1990) 265:11595-11600). […] In one such experiment (FIG. 9A), the intracellular cAMP level decreased to normal levels within 4 hours and remained at this level when tested after 20 hours. The effect of ddAdo was compared with two other adenylate cyclase inhibitors which are naturally occurring adenosine phosphates. When used in equal concentrations, the three inhibitors gave similar reductions in intracellular CAMP levels. For example, when added in 10 ng/ml for 10 min, ddAdo decreased the CAMP levels from 5.3 pmol/10^6 PBMC to 3.6; 3′ AMP to 3.5; and 2′,3′deoxy-AMP reduced the level to 3.2 pmol/10^6 PBMC.
cAMP was determined using a commercial scintillation proximity RIA (Amersham, Arlington Heights, Ill.) following the manufacturer's protocol. PKA activity was determined using a kit from Gibco (Grand Island, N.Y.) and the manufacturer's protocol. For the cAMP assay, cells were lysed and sonicated in assay buffer (provided with the kits). Proliferative assays were performed as described above.
Further purification was achieved by reverse phase chromatography. 3 ml of above solution was applied on C18 Sep-Pak cartridge (Waters) equilibrated with water+0.1% TFA. The column was washed with H2O-TFA until absorbance at 280nm reached baseline. Bound material was eluted from the column by stepwise elution with H2O-acetonitrile-TFA mixtures. There were three peaks on elution curve at 20%, 40% and 70% acetonitrile. The effluent from the above step was rechromatographed again on C18 cartridge and yielded additional quantities of the three products. […] Fraction 2 was added in various PBS dilutions to lymphocytes from HIV seropositive subjects. cAMP was then measured on lysates of these cells after 1 hour.

PTK = details: cited from earlier work
normal PBMC = assay: PHA-induced proliferation of normal PBMC, 3H-thymidine uptake; format: cell-based, human; details: for ^3H-Thy. Incorp.: PHA alone 254.2 ± 9.0
Experimental: Peripheral blood mononuclear cells (PBMC) from healthy blood donors were isolated by Lymphoprep (Nyegaard and Co., Oslo, Norway) density gradient centrifugation. Cell cultures were prepared in Eppendorf tubes and contained 5-10×10^6 cells/ml for phosphotyrosine experiments and 2-5×10^6 cells/ml for the kinase experiments and the cAMP determinations described below. The concentration of PHA added per tube was 10 μg/ml of PHA-P (Wellcome, Beckenham, England). Phorbol 12 myristate-13 acetate (PMA) (P-8139, Sigma, St. Louis, Mo.) was dissolved in dimethylsulfoxide (DMSO) and used in optimal concentrations of 200 ng/ml. The total volume per tube was 1 ml.
as §1
The concentration of Cholera toxoid was 10-0.2 μg/ml and 8-bromoadenosine 3′,5′ cyclic monophosphate (Br-cAMP) was 40-0.2 μg/ml. […] The PTK inhibitor Tyrphostin 25 (Bimol, Plymouth, Pa.) was used in a concentration of 1.0 μg/ml. Tyrphostin 25 has more than 30 fold higher affinity for PTK than for PKC and PKA. HIV components were added to final dilutions of 108-360 μg p24 antigen/mi.
Both Cholera toxoid or Br-cAMP impaired PHA-induced cell proliferation as measured by ^3H-thymidine uptake after 3 days of culture (Table 1). The 50% impairment of proliferation induced by HIV components is similar to the 50% impairment induced by 0.63 μg/ml of Cholera toxoid or […] of Br-cAMP. The experiment confirmed that cAMP impairs PHA-induced proliferation of T lymphocytes.

[3] = cells not stimulated (control), without inhibitor 1.3 ± 0.2
[4] = cells stimulated by HIV, without inhibitor 3.0 ± 0.2
[5] = cells stimulated by PHA, without inhibitor 4.2 ± 1.6

Molecule	Proliferative response to PHA [1]	PKC membrane activity (membrane PKC activity; [3])	PKC membrane activity (membrane PKC activity; [4])	PKC membrane activity (membrane PKC activity; [5])	cAMP levels [2]	further results
O=S(=O)(NCCNC/C=C/c1ccc(Br)cc1)c1cccc2cnccc12 [H-89]	enhance proliferation	6.0 ± 1.9 nM of ^32P/minute/10^6 PBMC	12.9 ± 4.7 nM of ^32P/minute/10^6 PBMC	9.4 ± 5.5 nM of ^32P/minute/10^6 PBMC	–	Fold higher affinity for PKA than for PKC (PKA): 660 fold
Nc1ncnc2c1ncn2[C@@H]1O[C@H](CO)[C@@H](OP(=O)(O)O)[C@H]1O [3′ AMP]	–	–	–	–	3.5 pmol/10^6 PBMC	–
N#CC(C#N)=Cc1cc(O)c(O)c(O)c1 [Tyrophostin-25]	–	2.0 ± 0.9 nM of ^32P/minute/10^6 PBMC	4.6 ± 0.0 nM of ^32P/minute/10^6 PBMC	7.7 ± 7.7 nM of ^32P/minute/10^6 PBMC	–	Fold higher affinity for PTK than for PKC and PKA (PTK): more than 30 fold
N#CC(C#N)=Cc1ccc(O)c(O)c1 [T-23]	enhance proliferation	–	–	–	–	–
2′,3′deoxy-AMP	–	–	–	–	3.2 pmol/10^6 PBMC	–
Nc1ncnc2c1nc(Br)n2[C@@H]1O[C@@H]2COP(=O)(O)O[C@H]2[C@H]1O [Br-cAMP, 8-bromoadenosine 3′,5′ cyclic monophosphate]	–	3.9 ± 1.7 nM of ^32P/minute/10^6 PBMC	2.2 ± 1.5 nM of ^32P/minute/10^6 PBMC	2.1 ± 1.6 nM of ^32P/minute/10^6 PBMC	–	Concentration inducing 50% impairment of PHA-induced proliferation (normal PBMC; 3 days of culture): 200 µg/mL; Activity, percentage of activity of PHA control (normal PBMC; PHA + 100 μg/ml): 66%; ^3H-Thy. Incorp. (normal PBMC; PHA + 100 μg/ml): 168.7 ± 21.9 cpm ×10^−6; Activity, percentage of activity of PHA control (normal PBMC; PHA + 200 μg/ml): 38%; ^3H-Thy. Incorp. (normal PBMC; PHA + 200 μg/ml): 96.3 ± 14.4 cpm ×10^−6; Activity, percentage of activity of PHA control (normal PBMC; PHA + 400 μg/ml): 16%; ^3H-Thy. Incorp. (normal PBMC; PHA + 400 μg/ml): 41.6 ± 2.1 cpm ×10^−6
